Assay results published in PubChem BioAssay (NCI).
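Where inhibition never reached the appropriate level, the endpoint shown equals the highest concentration tested. Otherwise, values were interpolated linearly from a five-concentration, 48-hour dose response in 96-well plates. GI50: concentration for 50% inhibition of growth. TGI marks complete inhibition of growth.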 Where a SMILES comes first, the peptide text is derived from it.

Legend:
Assay in all cases: NCI tumour cell line growth inhibition, 48 h
XF 498 CNS = tested on: XF 498 CNS
SK-MEL-5 melanoma = tested on: SK-MEL-5 melanoma
M19-MEL melanoma = tested on: M19-MEL melanoma
HOP-62 NSCLC = tested on: HOP-62 NSCLC
KM20L2 colon = tested on: KM20L2 colon
DMS 273 small cell lung = tested on: DMS 273 small cell lung
DMS 114 small cell lung = tested on: DMS 114 small cell lung
HOP-92 NSCLC = tested on: HOP-92 NSCLC
A498 renal = tested on: A498 renal
P388/ADR leukemia = tested on: P388/ADR leukemia
SK-MEL-2 melanoma = tested on: SK-MEL-2 melanoma
HOP-18 NSCLC = tested on: HOP-18 NSCLC
P388 leukemia = tested on: P388 leukemia
DLD-1 colon = tested on: DLD-1 colon
SNB-78 CNS = tested on: SNB-78 CNS
BT-549 breast = tested on: BT-549 breast

SMILES	TGI (XF 498 CNS)	TGI (SK-MEL-5 melanoma)	TGI (M19-MEL melanoma)	TGI (HOP-62 NSCLC)	TGI (KM20L2 colon)	TGI (DMS 273 small cell lung)	TGI (DMS 114 small cell lung)	TGI (HOP-92 NSCLC)	TGI (A498 renal)	TGI (P388/ADR leukemia)	TGI (SK-MEL-2 melanoma)	TGI (HOP-18 NSCLC)	TGI (P388 leukemia)	TGI (DLD-1 colon)	TGI (SNB-78 CNS)	TGI (BT-549 breast)	GI50 (A498 renal)	GI50 (SNB-78 CNS)	GI50 (HOP-92 NSCLC)	GI50 (SK-MEL-2 melanoma)
CCCCCC(CN1CCOCC1)C(=O)/C=C/c1ccccc1 (stereo not given)	3.29 µM	3.42 µM	7.05 µM	16.9 µM	10.9 µM	6.1 µM	5.17 µM	8.54 µM	–	–	–	–	–	–	–	–	–	–	–	–
CC1=C2C(O)C(C(C)C(=O)NCC(C)C)CCC2(C)C=CC1=O (stereo not given)	> 100 µM	> 100 µM	> 100 µM	> 100 µM	> 100 µM	> 100 µM	> 100 µM	> 100 µM	> 100 µM	> 100 µM	> 100 µM	> 100 µM	> 100 µM	> 100 µM	> 100 µM	–	–	–	–	–
C=C1C(=O)O[C@@H]2[C@H]3O[C@]3(C)CCC=C(C)CC[C@@H]12	32.4 µM	49.1 µM	33.7 µM	102 µM	62.2 µM	> 60.3 µM	165 µM	26.5 µM	13.3 µM	27.9 µM	37.7 µM	28.3 µM	175 µM	28.4 µM	62 µM	–	–	–	–	–
CN(C)c1nc(N(C)C)nc(N(C)C)n1	> 116 µM	136 µM	> 148 µM	> 142 µM	> 150 µM	> 147 µM	> 150 µM	> 150 µM	> 150 µM	> 136 µM	> 150 µM	87.3 µM	> 150 µM	> 150 µM	> 150 µM	> 150 µM	–	–	–	–
C=CC1(C)CCC(C(C)C(=O)C(C=C(C)C)OC(C)=O)C12C(=O)Oc1ccccc1C2=O (stereo not given)	> 100 µM	–	> 100 µM	> 100 µM	> 100 µM	> 100 µM	> 100 µM	> 100 µM	–	–	> 100 µM	> 100 µM	–	> 100 µM	> 100 µM	–	–	–	–	–
CCOC(=O)/C(C#N)=C/c1ccc2c(-c3c(OCC)ccc4cc(/C=C(\C#N)C(=O)OCC)ccc34)c(OCC)ccc2c1	–	> 100 µM	–	> 100 µM	–	–	–	> 100 µM	> 100 µM	–	> 100 µM	–	–	–	–	> 100 µM	–	–	–	–
NC(N)=NCCCC(N=c1c2ccccc2n(O)c2ccccc12)C(=O)O (stereo not given)	–	66.6 µM	> 100 µM	> 100 µM	> 100 µM	> 100 µM	> 100 µM	–	> 100 µM	–	> 100 µM	> 100 µM	–	> 100 µM	–	–	–	–	–	–
COc1ccc(OC)c(C2CCc3nc4nc(N)nc(N)c4cc3C2)c1 (stereo not given)	–	18.6 µM	–	5.04 µM	–	–	–	5.76 µM	27.5 µM	–	4.35 µM	–	–	–	–	16.6 µM	–	–	–	–
CC1NC(=O)CNC(=O)CNC(=O)C(Cc2ccc(O)cc2)NC(=O)C(C(C)C)NC(=O)C(C)NC1=O (stereo not given) (cyclo(GGAAVY); configuration not given here)	> 100 µM	> 100 µM	> 100 µM	> 100 µM	–	> 100 µM	> 100 µM	> 100 µM	> 100 µM	> 100 µM	> 100 µM	> 100 µM	> 100 µM	> 100 µM	> 100 µM	–	75.6 µM	> 100 µM	> 100 µM	–
CCN(CC)c1ccc(/C=C(\C#N)c2nc(N)nc(N3N=C(C)CC3(C)C)n2)cc1	–	> 61 µM	–	23.6 µM	–	–	–	22.4 µM	35.2 µM	–	34.1 µM	–	–	–	–	> 100 µM	–	–	–	–
Cc1cc(-c2ccc(C(=O)O)[nH]2)on1	–	> 100 µM	–	> 100 µM	–	–	–	> 100 µM	> 100 µM	–	> 100 µM	–	–	–	–	> 100 µM	–	–	–	–
COc1ccc2c(c1)C(N)CC2=O (stereo not given)	–	> 100 µM	–	> 100 µM	–	–	–	> 100 µM	> 100 µM	–	74.1 µM	–	–	–	–	> 100 µM	–	–	–	–
Clc1ccc(-c2nn3c(CCCCCCCCc4nnc5sc(-c6ccc(Cl)cc6)nn45)nnc3s2)cc1	–	60.3 µM	–	> 83.2 µM	–	–	–	> 100 µM	> 85.9 µM	–	> 70.5 µM	–	–	–	–	> 79.5 µM	–	–	–	–
COc1c2c(c(OC)c3c1c(=O)c1ccccc1n3C)OCO2	–	15.7 µM	–	> 100 µM	–	–	–	> 100 µM	> 100 µM	–	> 100 µM	–	–	–	–	> 100 µM	–	–	–	–
CSC(SC)=C1CC(=O)Nc2ccccc2C1=O	–	> 100 µM	–	> 100 µM	–	–	–	78.4 µM	> 100 µM	–	> 100 µM	–	–	–	–	> 100 µM	–	–	–	–
CNc1ncnc(Sc2nc(N)nc3nc[nH]c23)c1[N+](=O)[O-]	–	13.4 µM	–	> 100 µM	–	–	–	16.4 µM	> 100 µM	–	8.9 µM	–	–	–	–	20.1 µM	–	–	–	–
NC(=S)/N=C/c1c(O)c2ccccc2oc1=O	> 100 µM	> 100 µM	> 100 µM	–	> 100 µM	> 100 µM	> 100 µM	> 100 µM	> 100 µM	–	97.3 µM	> 100 µM	–	> 100 µM	> 100 µM	–	–	–	–	–
CNC(=S)/C(=N\Nc1nc[nH]c1C(N)=O)C(N)=S	–	81.3 µM	–	> 100 µM	–	–	–	99.4 µM	> 75.6 µM	–	> 82.3 µM	–	–	–	–	> 100 µM	–	–	–	–
COc1cc(NS(C)(=O)=O)ccc1NCc1cnc2ccc3[nH]c(C)ccc3c12	–	> 100 µM	–	> 100 µM	–	–	–	> 100 µM	42 µM	–	52.3 µM	–	–	–	–	> 100 µM	–	–	–	–
CCOC(=O)c1cc2cc(N(C(C)=O)C(C)=O)ccc2s1	–	65 µM	–	> 100 µM	–	–	–	> 100 µM	35.1 µM	–	51.6 µM	–	–	–	–	91.5 µM	–	–	–	–
Clc1ccc(N=C/C=C/Nc2ccc(Cl)cn2)nc1	–	27.5 µM	–	31 µM	–	–	–	30.1 µM	34.7 µM	–	29.2 µM	–	–	–	–	31 µM	–	–	–	–
CCN(CC)C(=S)SS(=O)(=O)c1ccccc1C(=O)O	–	> 100 µM	–	> 100 µM	–	–	–	> 100 µM	> 100 µM	–	> 100 µM	–	–	–	–	> 100 µM	–	–	–	–
Cc1ccc(S(=O)ON2CCC(C(=O)O)(c3ccccc3)CC2)cc1 (stereo not given)	–	> 100 µM	–	> 100 µM	–	–	–	> 100 µM	> 100 µM	–	> 100 µM	–	–	–	–	> 100 µM	–	–	–	> 100 µM
